Test results: patent US20070135448A1, “Use of cathepsin k inhibitors for treating of severe bone loss diseases” (priority 2003, published 2007)

Key:
[1] = system: ovariectomized (OVX) cynomolgus monkeys; assay: DXA bone mineral density of lumbar spine and femur in OVX cynomolgus monkeys, 18 months oral treatment; type: in vivo, cynomolgus monkeys (Macaca fascicularis)
Experimental: The present, 18 month long study is performed in order to assess the effect of COMPOUND A on bone in a non-human primate model of osteoporosis.
(§1) One hundred purpose-bred female cynomolgus monkeys (Macaca fascicularis), 12-13 years of age with closed growth plates are used for this study conducted in compliance with GLP. Eighty animals underwent bilateral ovariectomy and monkeys assigned to the sham group (S) underwent sham surgery. They are dosed twice daily by oral gavage with vehicle (distilled water) or COMPOUND A maleate (COMPOUND A-AF) for 18 months (Table 1).
(§2) DXA (Dual Energy X-ray Absorptiometry) of the lumbar spine and femur is performed twice prior to and at 3 months intervals during treatment. Compression test of third lumbar vertebra and a three-point bending test for the midshaft femur are carried out according to standard procedures. In brief, the cranial and caudal ends of each vertebral body are cut off to obtain a vertebral body specimen with two parallel surfaces and a height of approximately 7 mm. Each specimen is placed between two plates and a load applied at a constant displacement rate of 6 mm/min until failure in an Instron Mechanical Testing Machine. The femur is placed on the lower supports of a three point bending fixture with the anterior side facing downward in an Instron Mechanical Testing Machine. Load is applied at a constant displacement rate of […] until failure.
(§3) All group data are first checked to ensure they meet the assumptions for parametric analysis (normality, homogeneity of variances). Data are transformed, if necessary, to meet the assumptions as closely as possible. Results using transformed data are used for interpretation. In general, data are analyzed by one-way analysis of variance (1-way ANOVA) for variables assessed only once during the treatment phase of the study. For variables assessed repeatedly during the treatment phase, a two-way (group, time) analysis of covariance (ANCOVA) with repeated measures on time is used. For each ANCOVA evaluation, average baseline data for individual animals is used as the covariate. Results are presented as Mean±SEM (standard error of mean).

[2] = system: ovariectomized (OVX) cynomolgus monkeys; assay: 3-point bending test of midshaft femur, OVX cynomolgus monkeys after 18 months treatment; type: in vivo, cynomolgus monkeys (Macaca fascicularis); conditions: mean ± SEM; for Max load: n = 19-20
Experimental: as §1, §2, §3

[3] = system: ovariectomized (OVX) cynomolgus monkeys; assay: Mineral apposition rate (MAR) at the femoral neck, OVX cynomolgus monkeys; type: in vivo, cynomolgus monkeys (Macaca fascicularis)
Experimental: as §1
Mineral apposition rate (MAR), an indicator of bone formation, is reduced at cancellous bone for the femoral neck by the mid and high dose (FIG. 6) consistent with the action of an inhibitor of bone turnover.

[4] = system: ovariectomized (OVX) cynomolgus monkeys; assay: Tolerability in the 18 month OVX cynomolgus monkey study; type: in vivo; conditions: for Tolerability: 18 months
Experimental: as §1
Ovariectomized (OVX) cynomolgus monkeys are treated orally for 18 months with 3, 10, or 50/30 mg/kg COMPOUND A maleate twice daily (bid).

[5] = system: ovariectomized (OVX) cynomolgus monkeys; assay: Compression test of third lumbar vertebra (LV3), OVX cynomolgus monkeys after 18 months treatment; type: in vivo, cynomolgus monkeys (Macaca fascicularis)
Experimental: as §1
DXA (Dual Energy X-ray Absorptiometry) of the lumbar spine and femur is performed twice prior to and at 3 months intervals during treatment. Compression test of third lumbar vertebra and a three-point bending test for the midshaft femur are carried out according to standard procedures. In brief, the cranial and caudal ends of each vertebral body are cut off to obtain a vertebral body specimen with two parallel surfaces and a height of approximately 7 mm. […]
All group data are first checked to ensure they meet the assumptions for parametric analysis (normality, homogeneity of variances). […] In general, data are analyzed by one-way analysis of variance (1-way ANOVA) for variables assessed only once during the treatment phase of the study. For variables assessed repeatedly during the treatment phase, a two-way (group, time) analysis of covariance (ANCOVA) with repeated measures on time is used. […]

postmenopausal women = assay: 12-week double-blind placebo controlled phase IIA study, biochemical markers of bone resorption and formation; type: in vivo, human
Experimental: In a 12-week treatment, multicenter, double-blind, randomized, placebo-controlled, parallel group, a dose-ranging, safety, tolerability and efficacy trial with Compound A in postmenopausal women, with 3 weeks follow-up is conducted.
The primary objectives of the study are to assess the effect of Compound A on biochemical markers of bone resorption and bone formation, and to evaluate its safety and tolerability profile. Secondary objectives are to assess the changes in biochemical markers after the end of treatment, and to study the pharmacokinetics of Compound A and its metabolite during and after 12 weeks of treatment.
The population of subjects is normal healthy postmenopausal women. The reason for not investigating osteopenic women is the following: The efficacy endpoints of the study are biochemical markers of bone turnover. These variables are not directly correlated with BMD in man. […] They are at least 5 years postinenopause, mainly because biomarkers are expected to fluctuate less in these women than in the perimenopause. […]
Four doses are tested, 5, 10, 25, and 50 mg od. The duration of the study is 12 weeks, with a 3-week follow-up, 12 weeks treatment allows to assess the timecourse of biomarkers of both, bone resorption and bone formation and to ascertain that a steady-state in biomarkers is achieved.

[6] = High group: 2 × 50 mg/kg/day 1st month, 2 × 30 months 2-18, oral
[7] = High group: 2 × 50 mg/kg/day 1st month, 2 × 30 months 2-18, oral, * p < 0.05 versus OVX
[8] = Low group: 2 × 3 mg/kg/day oral, 18 months
[9] = Low group: 2 × 3 mg/kg/day oral, 18 months, * p < 0.05 versus OVX
[10] = Mid group: 2 × 10 mg/kg/day oral, 18 months

`CCCN1CCN(c2ccc(C(=O)NC3(C(=O)NCC#N)CCCCC3)cc2)CC1` [Compound A, N-[1-(cyanomethyl-carbamoyl)-cyclohexyl]-4-(4-propyl-piperazin-1-yl)-benzamide] was tested, and the “Whole femur BMD (DXA) compared to group O (OVX)” value ([1]; all three dose levels, over the whole 18 months period) was “significant increase”, the “Lumbar spine LV1-4 BMD (DXA), effect versus OVX” value ([1]; all three doses (3, 10, 50/30 mg/kg bid), 18 months, p<0.05 versus OVX) was “inhibit the effect of OVX” and the “Lumbar spine LV1-4 BMD (DXA), efficacy of group H relative to other doses” value ([1]; group H, 50/30 mg/kg bid) was “tended to be less efficacious”. For the same molecule, the “Anterior-posterior diameter of the femur midshaft” value ([1]; groups L and H versus groups S and O) was “tends to be larger”, the “Whole femur BMD (DXA) compared to sham” value ([1]; treated groups, significant at month 9 for groups L and H and at month 18 for group M) was “even above sham for most time points” and the Moment of inertia [2, 6] was 322 ± 20 mm^4. The Ultimate strength [2, 6] was 196 ± 4 N/mm^2, the Energy [2, 7] was 1276 ± 87 * mJ and the Toughness [2, 7] was 3.6 ± 0.2 MJ/m³. It also gave a Max load [2, 6] of 973 ± 45 N, a Moment of inertia [2, 8] of 322 ± 20 mm^4 and a Ultimate strength [2, 8] of 195 ± 5 N/mm^2. For the same molecule, the Energy [2, 9] was 1305 ± 91 * mJ, the Toughness [2, 9] was 3.7 ± 0.2 MJ/m³ and the Max load [2, 8] was 972 ± 38 N. It also gave an Energy [2, 10] of 1126 ± 88 mJ, a Moment of inertia [2, 10] of 290 ± 16 mm^4 and a Toughness [2, 10] of 3.3 ± 0.2 MJ/m³. The Ultimate strength [2, 10] was 193 ± 3 N/mm^2, the Max load [2, 10] was 894 ± 39 N and the “Mineral apposition rate (MAR) at the periosteal side of the femoral neck” value ([3]; all doses, even the low dose is active) was “highly significantly increased”. The “Mineral apposition rate (MAR) at cancellous bone for the femoral neck” value ([3]; mid and high dose) was “reduced”, the “Food intake and body weight” value ([4]; 50 mg/kg bid oral, first month (then reduced to 30 mg/kg bid)) was “decreases in food intake and body weight” and the Tolerability ([4]; 3 and 10 mg/kg bid oral) was “well tolerated”. The Body weight gain ([4]; High group after reduction to 30 mg/kg bid, until end of study) was “remains significantly lower until the end of the study”, the Tolerability ([4]; OVX cynomolgus monkeys, oral twice daily, overall) was “generally well tolerated” and the “Maximum load in LV3 compression test versus OVX” value ([5]; all treatment groups (L, M, H), 18 months) was “increase maximum load”. For the same molecule, the “Maximum load in LV3 compression test, group H” value ([5]; group H, 50/30 mg/kg bid, p<0.01 versus OVX, p<0.05 versus Sham) was “increased above the group S level”, the “Bone resorption marker serum CTX versus placebo” value (postmenopausal women; all doses except 5 mg (10, 25, 50 mg od), all time points, p<0.001) was “significant difference” and the “Action on bone resorption marker (sCTX1)” value (postmenopausal women; postmenopausal women, 5, 10, 25, 50 mg od, 12 weeks) was “potent and rapid action”. The “Bone formation markers (serum osteocalcin, BSAP) over time” value (postmenopausal women; postmenopausal women, 12 weeks) was “the decrease of suppression is less than that seen with the bone resorption markers” and the “Other resorption biomarkers (serum NTX, urinary NTX)” value (postmenopausal women; postmenopausal women, 12 weeks) was “support results seen with serum CTX”.
